# Results taken from PubChem BioAssay (NCI).
#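 Five compound concentrations were applied to cells in 96-well plates for 48 hours; endpoints were derived by simple linear interpolation of the resulting dose-response curve. GI50 marks 50% less growth. TGI marks complete inhibition of growth.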
# What was measured:
# Experiment in all cases: DTP human tumour cell line panel, 48 h
# [1] = test system: A498 renal
# [2] = test system: CAKI-1 renal
# [3] = test system: SF-295 CNS
# [4] = test system: NCI-H522 lung
# [5] = test system: SNB-19 CNS
# [6] = test system: UACC-62 melanoma
# [7] = test system: OVCAR-5 ovarian
# [8] = test system: SN12C renal
# [9] = test system: NCI-H460 lung
# [10] = test system: SNB-75 CNS
# [11] = test system: MOLT-4 leukemia
# [12] = test system: COLO 205 colon
# [13] = test system: SF-268 CNS
# [14] = test system: 786-0 renal
# [15] = test system: SK-MEL-2 melanoma
# [16] = test system: K-562 leukemia
# [17] = test system: UO-31 renal
SMILES,TGI [1],TGI [2],TGI [3],TGI [4],TGI [5],TGI [6],TGI [7],TGI [8],TGI [9],TGI [10],TGI [11],TGI [12],TGI [13],TGI [14],TGI [15],TGI [16],TGI [17],GI50 [11],GI50 [16]
C=CCN(C)CN(C)c1nc(N(C)C)nc(N(C)C)n1,> 100 µM,> 100 µM,> 100 µM,51.5 µM,> 100 µM,> 100 µM,> 100 µM,> 100 µM,> 100 µM,> 100 µM,> 100 µM,> 100 µM,> 100 µM,> 100 µM,> 100 µM,> 100 µM,> 100 µM,–,–
CCS(=O)(=O)CCn1cnc2c1c(=O)n(C)c(=O)n2C,> 100 µM,> 100 µM,> 100 µM,> 100 µM,> 100 µM,> 100 µM,> 100 µM,> 100 µM,> 100 µM,> 100 µM,> 100 µM,> 100 µM,> 100 µM,> 100 µM,> 100 µM,> 100 µM,> 100 µM,–,–
CC(C)NCCC(O)c1cc2ccccc2o1 (configuration not stated),> 100 µM,> 100 µM,> 100 µM,> 100 µM,> 100 µM,> 100 µM,> 100 µM,> 100 µM,> 100 µM,> 100 µM,49.2 µM,> 100 µM,> 100 µM,> 100 µM,> 100 µM,> 100 µM,> 100 µM,–,–
O=C1CC(=O)N(CCc2ccccc2)S(=O)(=O)N1CCc1ccccc1,34.2 µM,51.4 µM,35.4 µM,37.5 µM,87.4 µM,77.7 µM,64.4 µM,> 100 µM,> 100 µM,84.7 µM,44.2 µM,44.2 µM,80.8 µM,30.8 µM,48.3 µM,58.1 µM,40.5 µM,–,–
C=CC[C@@]1(C)CCCCCCCCC[C@@](C)(CC=C)C1=O,36.4 µM,> 100 µM,37.4 µM,59.4 µM,45 µM,67.5 µM,> 100 µM,76.8 µM,59.1 µM,92.4 µM,43.2 µM,42.3 µM,> 100 µM,> 100 µM,37.9 µM,74.5 µM,> 100 µM,–,–
COC(=O)c1ccccc1/C=C1\Cc2cc(C)c(C)cc2C1=O,> 100 µM,> 100 µM,> 100 µM,> 100 µM,> 100 µM,> 100 µM,> 100 µM,> 100 µM,> 100 µM,81.3 µM,> 100 µM,> 100 µM,> 100 µM,> 100 µM,68.3 µM,> 100 µM,> 100 µM,–,–
CC#CCCN(CC#N)Cc1ccccc1,37.2 µM,> 100 µM,> 100 µM,> 100 µM,> 100 µM,32.9 µM,> 100 µM,> 100 µM,> 100 µM,> 100 µM,> 100 µM,> 100 µM,> 100 µM,> 100 µM,> 100 µM,> 100 µM,> 100 µM,–,–
COC(=O)[C@@H]1C[C@H]([Se]c2ccccc2)CN1C(=O)OCc1ccccc1,> 100 µM,> 100 µM,> 100 µM,> 100 µM,> 100 µM,35.8 µM,> 100 µM,> 100 µM,86.1 µM,> 100 µM,66.8 µM,54.5 µM,> 100 µM,> 100 µM,42.2 µM,> 100 µM,95.3 µM,–,–
COC(=O)[C@@]12OC[C@]34C([C@@H](O)C1O)[C@@]1(C)CC(=O)C(OC(=O)/C=C(/c5ccccc5)C(F)(F)F)=C(C)C1C[C@H]3OC(=O)[C@H](O)[C@H]42 (some centres not stated),2.26 µM,> 50 µM,28.1 µM,24.5 µM,23.2 µM,11.7 µM,> 50 µM,> 50 µM,23 µM,31.3 µM,26.9 µM,30.2 µM,> 50 µM,> 50 µM,27.4 µM,> 50 µM,> 50 µM,–,–
CN(C)C(=O)Oc1ccc(-c2cn3cc(NC(=O)c4ccccc4)ccc3n2)cc1,> 100 µM,> 100 µM,> 100 µM,> 100 µM,> 100 µM,> 100 µM,> 100 µM,> 100 µM,> 100 µM,> 100 µM,> 100 µM,32 µM,> 100 µM,> 100 µM,> 100 µM,> 100 µM,> 100 µM,–,–
C=CCOC(=O)[C@@H]1C[C@@H](OC(C)(C)C)CN1C(=O)[C@@H]1[C@H]2OC(C)(C)O[C@H]2CN1C(=O)OCC1c2ccccc2-c2ccccc21,30.5 µM,16.9 µM,34.4 µM,1.39 µM,33 µM,34.5 µM,32.9 µM,32.2 µM,23.6 µM,33.9 µM,34.4 µM,45.7 µM,40.1 µM,9.97 µM,> 55 µM,> 56.9 µM,0.614 µM,–,–
C=C1C(=O)O[C@H]2[C@H]1CC(=O)/C(C)=C/CC[C@@]1(C)O[C@@H]21,3.6 µM,1.28 µM,31.6 µM,0.729 µM,13.8 µM,2.76 µM,6.87 µM,3.93 µM,29.8 µM,31.6 µM,1.13 µM,0.708 µM,13.4 µM,1.53 µM,8.47 µM,1.68 µM,2.29 µM,0.276 µM,0.368 µM
Cn1c2cc(O)cc(O)c2c(=O)c2c([N+](=O)[O-])cccc21,> 100 µM,> 100 µM,> 100 µM,> 100 µM,> 100 µM,> 100 µM,> 100 µM,> 100 µM,> 100 µM,> 100 µM,> 100 µM,> 100 µM,> 100 µM,> 100 µM,> 100 µM,> 100 µM,> 100 µM,–,–
C=CCNC1=C2C[C@@H](C)C[C@@H](OC)[C@H](OC(=O)CN)[C@H](C)/C=C(\C)[C@@H](OC(N)=O)[C@H](OC)/C=C\C=C(/C)C(=O)NC(=CC1=O)C2=O,28.4 µM,18.1 µM,12.6 µM,18.8 µM,25.5 µM,12 µM,25 µM,17.1 µM,18.3 µM,9.59 µM,> 36.1 µM,5.23 µM,29.7 µM,20.7 µM,18.7 µM,> 47.4 µM,19.7 µM,–,–
C[C@]12[C@@H]3CC[C@H]1[C@@H](OC(=O)Nc1cc([N+](=O)[O-])cc([N+](=O)[O-])c1)C(=O)N2CC3,> 100 µM,> 100 µM,> 100 µM,> 100 µM,> 100 µM,> 100 µM,> 100 µM,> 100 µM,> 100 µM,> 100 µM,> 100 µM,> 100 µM,> 100 µM,> 100 µM,> 100 µM,> 100 µM,> 100 µM,–,–
Cc1c(C)c(S(=O)(=O)N(CCCN)OCCCN)c(C)c2c1OC(C)(C)C2,42 µM,> 100 µM,98.9 µM,30.6 µM,63.5 µM,> 100 µM,61.6 µM,> 100 µM,> 100 µM,59.5 µM,42.7 µM,32.5 µM,> 100 µM,68 µM,26.7 µM,> 100 µM,> 100 µM,–,–
C=CC[C@@H]1C(=O)[C@@]2(O[Si](C(C)C)(C(C)C)C(C)C)CC[C@@H]1C[C@H]2NC(=O)OCC(Cl)(Cl)Cl,> 100 µM,> 100 µM,85.8 µM,0.0356 µM,> 100 µM,> 100 µM,> 100 µM,> 100 µM,> 100 µM,> 100 µM,> 100 µM,> 100 µM,> 100 µM,> 100 µM,> 100 µM,> 100 µM,> 100 µM,–,–
C=C1CN(Cc2ccccc2)[C@@H]2CCCCC[C@H](C#N)[C@H]12,> 100 µM,> 100 µM,> 30.7 µM,> 100 µM,> 100 µM,> 100 µM,> 100 µM,> 100 µM,> 100 µM,> 100 µM,> 100 µM,> 100 µM,> 100 µM,> 100 µM,> 100 µM,> 100 µM,> 100 µM,–,–
N=C(N)SCc1cccc2c(=O)cc(-c3ccccc3)oc12,35.8 µM,11.3 µM,26.5 µM,13.6 µM,> 61.1 µM,32.4 µM,41.8 µM,25.9 µM,22.9 µM,19.4 µM,8.79 µM,27.3 µM,45.8 µM,23.3 µM,25.2 µM,> 42.2 µM,11.3 µM,–,–
COc1cc2c(cc1O)[C@@H]1Cc3c(cc(OC)c(OC)c3Oc3cc4c(cc3OC)CCN(C)[C@@H]4Cc3ccc(O)cc3)[C@H](C2)N1C,80.4 µM,> 100 µM,> 100 µM,67 µM,> 100 µM,> 100 µM,> 100 µM,> 100 µM,> 100 µM,> 80 µM,> 90.5 µM,38.2 µM,> 100 µM,> 100 µM,53.3 µM,45.8 µM,> 100 µM,–,–
CC1OC(OC2C(O)COC(OC3C(C)OC(OC4C(OC(=O)[C@]56CCC(C)(C)C[C@@H]5C5=CCC7[C@@]8(C)C[C@H](O)[C@H](OC9OC(CO)C(O)C(OC%10OC(CO)C(O)C(O)C%10O)C9O)[C@@](C)(CO)[C@@H]8CC[C@@]7(C)[C@]5(C)CC6)OCC(O)C4O)C(O)C3O)C2O)C(O)C(O)C1O (some centres not stated),26 µM,19.1 µM,28.4 µM,31.4 µM,30.4 µM,39.8 µM,27 µM,25.2 µM,40.2 µM,35 µM,36.5 µM,18.1 µM,39.7 µM,30 µM,36 µM,> 100 µM,16 µM,–,–
COc1ccc(Cc2nccc3cc(OC)c(OC)cc23)cc1OC,> 100 µM,> 100 µM,> 100 µM,> 100 µM,> 100 µM,> 100 µM,> 100 µM,> 100 µM,> 100 µM,> 100 µM,> 100 µM,> 100 µM,> 100 µM,> 100 µM,> 100 µM,> 100 µM,> 100 µM,–,–
Cc1cc(NS(=O)(=O)c2ccc(Nc3c4ccccc4nc4ccc(C(=O)Nc5ccc(S(N)(=O)=O)cc5)cc34)cc2)no1,> 100 µM,> 100 µM,> 100 µM,> 100 µM,> 100 µM,> 100 µM,> 100 µM,> 100 µM,> 100 µM,> 100 µM,> 100 µM,> 100 µM,> 100 µM,> 100 µM,> 100 µM,> 100 µM,> 100 µM,–,–
Cc1c(C)c2c(c(N)c1C#N)C(=O)N(CCN1CCNCC1)C2=O,72.3 µM,> 100 µM,> 100 µM,97.3 µM,> 100 µM,62.4 µM,81.1 µM,> 100 µM,> 100 µM,77 µM,> 100 µM,78.7 µM,> 100 µM,> 100 µM,> 100 µM,> 100 µM,90.9 µM,–,–
CCCCC(=O)Oc1ccc2c(C)cc(=O)oc2c1,> 100 µM,> 100 µM,> 100 µM,> 100 µM,> 100 µM,> 100 µM,> 100 µM,> 100 µM,> 100 µM,> 100 µM,> 100 µM,> 100 µM,> 100 µM,> 100 µM,> 100 µM,> 100 µM,> 100 µM,–,–
